Measured values reported in publication PMC7463460, “Structure and Antiparasitic Activity Relationship of Alkylphosphocholine Analogues against Leishmania donovani” (Microorganisms, 2020).
Where “and” joins values, the source holds several entries; their conditions need not be identical. Equal entries are not always repeated.

How the values were obtained:
[1] = system: L. donovani 275/18 Milt-Sb-resistant intracellular amastigotes; assay: Intracellular amastigote assay, Milt-resistant 275/18; assay type: cell-based, Leishmania donovani; conditions: for IC50: Leishmania donovani, read-out: Mean IC50 Value Amastigotes; for Selectivity Index (SI50): macrophage CC50 / amastigote IC50
From the text: (§1) L. donovani cloned strains with different Sb susceptibility backgrounds were derived from isolates obtained from VL patients at the B.P. Koirala Institute of Health Sciences, Dharan, Nepal: MHOM/NP/02/BPK282/0cl4 (Sb sensitive, Sb-S). MHOM/NP/02/BPK087/0cl11 (Sb intermediate, Sb-I) and MHOM/NP/02/BPK275/0cl18 (Sb resistance, Sb-R [13]). In addition, Milt-resistant parasites raised against these three Sb sensitivity backgrounds and the Sb-sensitive strain (MHOM/ET/67:LV82) was also used in studies. Luciferase expressing promastigotes for the LV82 and Nepalese strains were prepared using previously published methods and the integrative construct (a gift from Dr D.F. Smith), designated pGL1313, contained pSSU-int fragments to facilitate integration into the ribosomal RNA locus of Leishmania.
(§2) In the macrophage studies, the method described in previous studies was used as follows. Briefly, bone-marrow-derived BALB/c macrophages (1–2 × 10^5) in 100 µL complete RPMI 1640 medium were added to the wells of a 96 well plate and left to adhere for 24 h at 37 °C, 5% CO₂/95% air. The medium was removed and 100 µL of the appropriate L. donovani luciferase-expressing promastigotes line (parasite: host cell ratio 1:10, 1:20 or 1:40) was added to each well, the ratio used reflected the infectivity of the strain and ensured that control data gave a bioluminescent signal within the same range. […] The variability in infectivity complicates strain to strain comparisons, but we decided to focus on achieving good infection levels in controls so that the effect of drug treatment could be determined. It is possible that intracellular macrophage parasites could have been at different developmental stages at 24 h post-infection. […] Therefore, we assumed that the effect of compounds on the amastigote stage rather than the promastigotes stage was determined in in vitro macrophage studies.
(§3) The plate was incubated for a further 24 h, the medium removed, and each well washed with PBS to eliminate non-internalized parasites, which were monitored microscopically. When the wells were devoid of external parasites, 100 µL of the medium alone (control) or appropriate APC compound was then added (0.01–0.197 µg/mL, n = 3/treatment). […]. All plates were incubated for 72 h at 37 °C, 5% CO₂/95% air. Wells with macrophage and with no drug or promastigotes added were used in control experiments.
(§4) Luciferin solution (1 µg/mL in 20 µL medium without FCS) was added to the appropriate wells of the 96-well plate at the end of the experiment and the amount of light emitted/well was measured using a luminometer (Biotek Synergy HT, relative light units) using a wavelength/bandwidth of 440/40 nm, or IVIS® imaging (Spectrum Living Image system®, total flux, photons/sec).
(§5) The effect of drug treatment on parasite survival was determined by calculating the mean suppression in the light emitted from the drug-treated experimental sample compared to the mean control value and used to calculate the IC50 using Grafit® software (version 5.0, Erithacus Software, East Grinstead, West Sussex, UK). The effect of drug alone on the viability of uninfected macrophages was determined using the same experimental protocol above, but cell viability was determined using an alamar blue colorimetric assay. At the end of the incubation period, cells’ 10 µL resazurin solution (0.02% w/v) was added to control and drug treated cells and the absorbance of samples was read at 575 and 595 nm. The effect of drug treatment on cell survival, which correlates with the magnitude of dye reduction, was expressed as percentage viability (or alamar blue reduction) and determined using the formula provided in the manufacturer’s protocol % alamar blue reduction=(εoxλ)(Aλ1)−(εoxλ1)(Aλ2)/(εredλ1)(A^′λ2)−(εredλ2)(A^′λ1)x100 […]

[2] = system: L. donovani 087/11 Milt-Sb-intermediate intracellular amastigotes; assay: Intracellular amastigote assay, Milt-resistant 087/11; assay type: cell-based, Leishmania donovani; conditions: for IC50: Leishmania donovani, read-out: Mean IC50 Value Amastigotes; for Cross-Resistance Index (CRI50) Amast / Selectivity Index (SI50): strain 087/11, Milt-Sb-intermediate; for Selectivity Index (SI50): macrophage CC50 / amastigote IC50
From the text: as §1, §2, §3, §4, §5

[3] = system: L. donovani LV82 intracellular amastigotes; assay: Intracellular amastigote assay in bone-marrow-derived macrophages, strain LV82; assay type: cell-based, Leishmania donovani; conditions: for IC50 / IC90: Leishmania donovani, Macrophage; for IC50: in Mus musculus, 72 h; for IC90: LV82; for Selectivity Index (SI50): macrophage CC50 / LV82 intracellular amastigote IC50
Method: In the macrophage studies, the method described in previous studies was used as follows. […] It is possible that intracellular macrophage parasites could have been at different developmental stages at 24 h post-infection. […] Therefore, we assumed that the effect of compounds on the amastigote stage rather than the promastigotes stage was determined in in vitro macrophage studies.
The plate was incubated for a further 24 h, the medium removed, and each well washed with PBS to eliminate non-internalized parasites, which were monitored microscopically. […] Wells with macrophage and with no drug or promastigotes added were used in control experiments.
as §4
The effect of drug treatment on parasite survival was determined by calculating the mean suppression in the light emitted from the drug-treated experimental sample compared to the mean control value and used to calculate the IC50 using Grafit® software (version 5.0, Erithacus Software, East Grinstead, West Sussex, UK). The effect of drug alone on the viability of uninfected macrophages was determined using the same experimental protocol above, but cell viability was determined using an alamar blue colorimetric assay. […] The effect of drug treatment on cell survival, which correlates with the magnitude of dye reduction, was expressed as percentage viability (or alamar blue reduction) and determined using the formula provided in the manufacturer’s protocol % alamar blue reduction=(εoxλ)(Aλ1)−(εoxλ1)(Aλ2)/(εredλ1)(A^′λ2)−(εredλ2)(A^′λ1)x100

[4] = design: method as in Anatrace product description sheet; conditions: critical micellar concentration; ref Anatrace product description sheet; cited from earlier work
[5] = system: L. donovani 282/4 Milt-Sb-sensitive intracellular amastigotes; assay: Intracellular amastigote assay, Milt-resistant 282/4; assay type: cell-based, Leishmania donovani; conditions: for IC50: Leishmania donovani, read-out: Mean IC50 Value Amastigotes; for Selectivity Index (SI50): strain 282/4, Milt-Sb-sensitive, macrophage CC50 / amastigote IC50
From the text: as §1, §2
The plate was incubated for a further 24 h, the medium removed, and each well washed with PBS to eliminate non-internalized parasites, which were monitored microscopically. […]
as §4
The effect of drug treatment on parasite survival was determined by calculating the mean suppression in the light emitted from the drug-treated experimental sample compared to the mean control value and used to calculate the IC50 using Grafit® software (version 5.0, Erithacus Software, East Grinstead, West Sussex, UK). The effect of drug alone on the viability of uninfected macrophages was determined using the same experimental protocol above, but cell viability was determined using an alamar blue colorimetric assay. At the end of the incubation period, cells’ 10 µL resazurin solution (0.02% w/v) was added to control and drug treated cells and the absorbance of samples was read at 575 and 595 nm. The effect of drug treatment on cell survival, which correlates with the magnitude of dye reduction, was expressed as percentage viability (or alamar blue reduction) and determined using the formula provided in the manufacturer’s protocol % alamar blue reduction=(εoxλ)(Aλ1)−(εoxλ1)(Aλ2)/(εredλ1)(A^′λ2)−(εredλ2)(A^′λ1)x100

[6] = system: L. donovani 275/18 (Sb-resistant) intracellular amastigotes; assay: Intracellular amastigote assay, Sb-resistant strain 275/18; assay type: cell-based, Leishmania donovani; conditions: for IC50: Leishmania donovani, read-out: Mean IC50 Amastigotes; for Cross-Resistance Index (CRI50) Amast: strain 275/18, Sb-resistant vs Sb-S; for Selectivity Index (SI50): strain 275/18, Sb-resistant, macrophage CC50 / amastigote IC50
From the text: as §1, §2, §3, §4, §5

[7] = LV82, intracellular in BALB/c macrophages, 3 days, 37 °C
[8] = strain 275/18, Milt-Sb-resistant

Row | SMILES | IC50 [1] | IC50 [2] | IC50 [3, 7] | IC90 [3] | CMC [4] | IC50 [5] | IC50 [6] | Cross-Resistance Index (CRI50) Amast [1, 8] | Selectivity Index (SI50) [1, 8] | Cross-Resistance Index (CRI50) Amast [2] | Selectivity Index (SI50) [2] | Selectivity Index (SI50) [3] | Selectivity Index (SI50) [5] | Cross-Resistance Index (CRI50) Amast [6] | Selectivity Index (SI50) [6] | Amastigote mean IC50 [3, 7] | fold more active than Milt (APC16) ([3]; intracellular amastigotes)
1 | CCCCCCCCCCCCCCCCOP(=O)([O-])OCC[N+](C)(C)C [APC16, hexadecylphosphocholine, reference compound] | > 61.4 µg/mL and > 151 µM | 12.7 µg/mL and 31 µM | 0.1 µg/mL and 250 nM | 0.9 ± 0.016 µg/mL | 0.41 µg/mL | > 1.61 µg/mL and > 3.95 µM | 0.51 µg/mL and 1.25 µM |  |  |  |  |  |  |  |  |  | 
2 | CCCCCCCCCCCCCCOP(=O)([O-])OCC[N+](C)(C)C [APC14, tetradecylphosphocholine] | 34.9 µg/mL and 91.8 µM | 10 µg/mL and 26.4 µM | 0.03 µg/mL and 66 nM |  | 45.54 µg/mL | > 1.73 µg/mL and > 4.56 µM | 0.28 µg/mL and 740 nM | > 20.144 | 1.17 | > 5.95 | 4.08 | 1632.58 | >23.64 | 2.33 | 146.04 |  | 
3 | CCCCCCCCCCCCOP(=O)([O-])OCC[N+](C)(C)C [APC12, dodecylphosphocholine] | 4.45 µg/mL and 12.7 µM | 6.17 µg/mL and 17.6 µM | 0.009 µg/mL and 26 nM | 0.081 ± 0.01 µg/mL | 351.50 µg/mL | 0.08 µg/mL and 230 nM | 0.23 µg/mL and 650 nM |  | 7.95 | 77.13 | 5.73 | 3870.77 | 442.25 | 0.88 | 153.83 | 0.01 ± 0.00 µg/mL | 4 fold
